According to ChEMBL document CHEMBL1201862, “PubChem BioAssay data set” (2004):
The source made the active and inactive calls.

Experiments:
[1] = molecular target: T1, Endoribonuclease toxin MazF (Escherichia coli K-12, UniProt P0AE70); experiment: MazF toxin RNase activators, dose response, biochemical, fluorescence, single-stranded RNA substrate, uHTS hits (AID 588481); type: functional
T1 sequence (P0AE70 whole entry): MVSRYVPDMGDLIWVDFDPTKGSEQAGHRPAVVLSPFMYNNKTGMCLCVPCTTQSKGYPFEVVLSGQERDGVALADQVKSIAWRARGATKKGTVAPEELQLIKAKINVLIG

[2] = molecular target: T1, Endoribonuclease toxin MazF; experiment: fluorescent RNA oligo signal without MazF, dose response, counter-screen for MazEF activator project, biochemical, fluorescence, single-stranded RNase substrate (AID 588502); type: functional
[3] = Fluorescence-based cell-based high throughput dose response assay for inhibitors of the interaction of nucleotide-binding oligomerization domain containing 2 (NOD2) and the receptor-interacting serine-threonine kinase 2 (RIPK2).; type: functional, Homo sapiens
Beta-galactosidase = Beta-galactosidase (Escherichia coli, UniProt Q8VNN2); experiment: Dose response counterscreen for EBI2 assay utilizing the enzyme, b-galactosidase.; type: functional
[4] = molecular target: T2, Low molecular weight phosphotyrosine protein phosphatase (Homo sapiens, UniProt P24666); type: functional; settings: read-out: IC50_Mean
T2 sequence (P24666 whole entry): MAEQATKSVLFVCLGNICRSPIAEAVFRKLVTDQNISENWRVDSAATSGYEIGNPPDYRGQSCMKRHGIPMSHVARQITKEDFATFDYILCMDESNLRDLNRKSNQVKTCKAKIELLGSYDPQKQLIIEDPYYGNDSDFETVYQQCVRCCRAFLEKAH

[5] = molecular target: T2, Low molecular weight phosphotyrosine protein phosphatase; type: functional; settings: read-out: IC50_Mean; remark: listed apart in the source
Caspase-3 = molecular target: T3, Caspase-3 (Homo sapiens, UniProt P42574); type: functional;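 also: Dose-response selectivity test against caspase-3 for candidate inhibitors of sentrin-specific proteases (SENPs)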
T3 sequence (P42574 whole entry): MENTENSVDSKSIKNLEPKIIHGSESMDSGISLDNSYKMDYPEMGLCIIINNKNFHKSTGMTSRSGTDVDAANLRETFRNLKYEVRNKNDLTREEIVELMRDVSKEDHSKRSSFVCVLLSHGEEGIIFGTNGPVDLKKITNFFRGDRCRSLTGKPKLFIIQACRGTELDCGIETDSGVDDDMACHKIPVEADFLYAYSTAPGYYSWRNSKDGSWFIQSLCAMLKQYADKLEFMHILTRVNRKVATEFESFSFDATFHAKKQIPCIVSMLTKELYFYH

[6] = molecular target: T4, Sentrin-specific protease 7 (Homo sapiens, UniProt Q9BQF6); type: functional;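 also: Luminescence-based dose-response confirmation of ultra-high-throughput screening hits, measuring inhibition of SENP7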
T4 sequence (Q9BQF6 whole entry): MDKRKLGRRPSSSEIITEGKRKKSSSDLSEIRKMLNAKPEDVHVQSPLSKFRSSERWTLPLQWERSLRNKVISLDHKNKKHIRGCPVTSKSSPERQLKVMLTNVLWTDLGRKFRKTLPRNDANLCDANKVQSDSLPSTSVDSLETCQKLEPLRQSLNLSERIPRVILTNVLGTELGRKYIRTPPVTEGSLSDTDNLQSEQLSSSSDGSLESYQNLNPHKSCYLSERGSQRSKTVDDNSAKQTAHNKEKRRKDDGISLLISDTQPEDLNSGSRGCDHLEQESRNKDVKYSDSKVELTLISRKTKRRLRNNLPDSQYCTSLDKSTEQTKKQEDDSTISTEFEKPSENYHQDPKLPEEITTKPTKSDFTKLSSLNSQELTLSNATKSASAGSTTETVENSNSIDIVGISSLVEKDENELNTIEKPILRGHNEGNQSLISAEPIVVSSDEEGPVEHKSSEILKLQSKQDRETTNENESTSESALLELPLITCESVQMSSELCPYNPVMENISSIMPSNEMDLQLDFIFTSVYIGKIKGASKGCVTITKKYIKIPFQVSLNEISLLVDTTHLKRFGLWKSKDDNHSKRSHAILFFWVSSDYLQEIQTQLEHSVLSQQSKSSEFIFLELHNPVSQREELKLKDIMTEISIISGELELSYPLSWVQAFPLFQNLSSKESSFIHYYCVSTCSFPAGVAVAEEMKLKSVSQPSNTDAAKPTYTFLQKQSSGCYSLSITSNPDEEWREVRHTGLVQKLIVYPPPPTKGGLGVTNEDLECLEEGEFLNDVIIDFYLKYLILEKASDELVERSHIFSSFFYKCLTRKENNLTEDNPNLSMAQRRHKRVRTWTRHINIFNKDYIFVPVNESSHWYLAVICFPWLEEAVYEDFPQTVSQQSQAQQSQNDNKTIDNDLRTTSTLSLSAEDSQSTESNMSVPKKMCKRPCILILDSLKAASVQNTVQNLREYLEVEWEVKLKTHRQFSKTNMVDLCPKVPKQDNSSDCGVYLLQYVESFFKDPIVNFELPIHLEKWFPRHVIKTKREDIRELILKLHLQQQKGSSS

[7] = molecular target: T5, Sentrin-specific protease 6 (Homo sapiens, UniProt Q9GZR1); type: functional;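 also: Luminescence-based dose-response confirmatory assay of SENP6 inhibition, following up an ultra-high-throughput screen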
T5 sequence (Q9GZR1 whole entry): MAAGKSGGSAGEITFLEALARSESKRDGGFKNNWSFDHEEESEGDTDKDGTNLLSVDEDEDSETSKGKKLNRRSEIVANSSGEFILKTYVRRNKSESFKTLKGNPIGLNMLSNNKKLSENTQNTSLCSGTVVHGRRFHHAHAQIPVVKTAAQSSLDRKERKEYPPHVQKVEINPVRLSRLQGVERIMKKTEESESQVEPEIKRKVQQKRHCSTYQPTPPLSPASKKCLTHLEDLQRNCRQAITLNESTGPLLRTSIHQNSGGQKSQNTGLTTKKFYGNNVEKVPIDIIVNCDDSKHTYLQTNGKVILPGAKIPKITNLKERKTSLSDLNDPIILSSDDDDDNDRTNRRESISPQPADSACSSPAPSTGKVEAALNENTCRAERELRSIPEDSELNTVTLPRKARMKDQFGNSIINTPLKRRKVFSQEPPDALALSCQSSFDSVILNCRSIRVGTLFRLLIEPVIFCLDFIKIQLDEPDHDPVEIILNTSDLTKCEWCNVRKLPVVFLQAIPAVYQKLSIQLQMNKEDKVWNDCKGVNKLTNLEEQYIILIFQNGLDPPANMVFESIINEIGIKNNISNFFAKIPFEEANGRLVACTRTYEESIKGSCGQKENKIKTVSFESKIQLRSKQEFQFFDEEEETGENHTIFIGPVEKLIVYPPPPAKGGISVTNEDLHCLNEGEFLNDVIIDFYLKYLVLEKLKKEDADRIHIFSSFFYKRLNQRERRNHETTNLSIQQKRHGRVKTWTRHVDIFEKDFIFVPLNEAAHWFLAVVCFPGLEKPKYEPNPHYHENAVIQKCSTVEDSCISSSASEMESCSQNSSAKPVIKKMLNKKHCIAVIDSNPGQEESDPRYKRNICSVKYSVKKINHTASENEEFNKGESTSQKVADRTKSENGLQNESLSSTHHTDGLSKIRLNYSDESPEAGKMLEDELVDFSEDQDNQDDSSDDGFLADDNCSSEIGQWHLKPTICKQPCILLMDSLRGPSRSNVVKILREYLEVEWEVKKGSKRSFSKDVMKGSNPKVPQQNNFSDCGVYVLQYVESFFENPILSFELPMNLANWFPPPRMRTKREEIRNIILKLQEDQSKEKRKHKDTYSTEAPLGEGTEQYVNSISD

[8] = molecular target: T6, Sentrin-specific protease 8 (Homo sapiens, UniProt Q96LD8); type: functional;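 also: luminescence read-out of SENP8 inhibition, dose-response confirmation following an ultra-high-throughput screen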
T6 sequence (Q96LD8 whole entry): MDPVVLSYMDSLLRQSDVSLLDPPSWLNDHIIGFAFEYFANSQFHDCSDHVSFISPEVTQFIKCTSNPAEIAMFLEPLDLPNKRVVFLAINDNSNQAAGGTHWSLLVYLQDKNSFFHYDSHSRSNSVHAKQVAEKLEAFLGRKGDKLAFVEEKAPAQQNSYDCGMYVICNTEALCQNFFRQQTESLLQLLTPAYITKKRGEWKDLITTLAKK

[9] = molecular target: Tyrosine-protein phosphatase non-receptor type 11 (Homo sapiens, UniProt Q06124); experiment: SHP2 phosphatase inhibition, dose response, selectivity assay for STEP inhibitor project, biochemical (AID 602367); type: functional; settings: read-out: IC50_Mean
[10] = molecular target: Tyrosine-protein phosphatase non-receptor type 5 (Homo sapiens, UniProt P54829); experiment: STEP phosphatase inhibitors, confirmation, biochemical, fluorescence intensity, uHTS hits (AID 602372); type: functional; settings: read-out: IC50_Mean
[11] = molecular target: Dual specificity protein phosphatase 3 (Homo sapiens, UniProt P51452); experiment: VHR phosphatase inhibition, dose response, selectivity assay for STEP inhibitor project, biochemical (AID 602374); type: functional; settings: read-out: IC50_Mean
[12] = molecular target: T7, Probable nicotinate-nucleotide adenylyltransferase (Staphylococcus aureus (strain N315), UniProt P65502); type: functional, Staphylococcus aureus subsp. aureus N315;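 as to IC50 Mean: confirmatory dose-response retesting of NadD inhibitor hits first found in an ultra-high-throughput screen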
[13] = molecular target: T7, Probable nicotinate-nucleotide adenylyltransferase; type: functional, Staphylococcus aureus subsp. aureus N315; settings: read-out: IC50_Mean
[14] = molecular target: G-protein coupled receptor 55 (Homo sapiens, UniProt Q9Y2T6); experiment: GPR55 agonists via beta-arrestin recruitment, primary screen, imaging, U2OS cells, beta-arrestin-GFP redistribution (AID 1961); type: functional
[15] = molecular target: Potassium voltage-gated channel subfamily KQT member 2 (Rattus norvegicus, UniProt O88943); experiment: KCNQ2 potassium channel inhibitors, dose response, cell-based, automated electrophysiology, set II, rat KCNQ2 (AID 588637); type: functional
[16] = ARNT/TACC3 interaction disruptors, potency, confirmation, biochemical, AlphaScreen, cherry-picked samples (AID 651703); type: functional, Homo sapiens;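 also: His-tagged ARNT PAS-B domain paired with GST-TACC3 E629A dimer coactivator fragment; potency of inhibitors that break up the complex and lower AlphaScreen signal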
Vero = experiment: Vero cell toxicity, dose response, cytotoxicity control, plate reader, cherry-pick samples (AID 687020); type: functional, cell-based; settings: Chlorocebus sabaeus
[17] = HeLa cell cytotoxicity, dose response, cytotoxicity control for MgcRacGAP inhibitor project (AID 624300); type: functional
[18] = molecular target: T8, Rac GTPase-activating protein 1 (Homo sapiens, UniProt Q9H0H5); experiment: MgcRacGAP GTPase-activating activity inhibitors, confirmation, biochemical, ADP Hunter fluorescence, primary and confirmatory (AID 624330); type: functional
T8 sequence (Q9H0H5 whole entry): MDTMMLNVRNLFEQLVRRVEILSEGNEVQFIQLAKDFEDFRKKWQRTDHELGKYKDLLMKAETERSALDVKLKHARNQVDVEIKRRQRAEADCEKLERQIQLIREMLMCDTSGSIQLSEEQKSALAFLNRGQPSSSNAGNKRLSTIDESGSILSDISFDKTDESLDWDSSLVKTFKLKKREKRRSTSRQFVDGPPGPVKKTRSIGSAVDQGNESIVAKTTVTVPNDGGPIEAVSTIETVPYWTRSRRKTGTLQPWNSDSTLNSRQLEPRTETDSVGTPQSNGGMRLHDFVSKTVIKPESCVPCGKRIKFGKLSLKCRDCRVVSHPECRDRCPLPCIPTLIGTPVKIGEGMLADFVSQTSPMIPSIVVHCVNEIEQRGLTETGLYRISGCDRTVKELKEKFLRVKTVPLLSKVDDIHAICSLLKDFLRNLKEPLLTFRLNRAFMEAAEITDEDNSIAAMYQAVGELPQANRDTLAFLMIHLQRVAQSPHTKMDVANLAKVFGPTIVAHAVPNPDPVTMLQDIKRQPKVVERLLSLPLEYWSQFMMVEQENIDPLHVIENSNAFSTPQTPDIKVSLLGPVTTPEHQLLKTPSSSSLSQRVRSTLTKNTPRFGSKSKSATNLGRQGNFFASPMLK

HEK293 [19] = experiment: cells; settings: Homo sapiens
HEK293 [20] = experiment: cells; settings: Homo sapiens; remark: listed apart in the source
[21] = molecular target: Benomyl/methotrexate resistance protein (Candida albicans, UniProt P28873); experiment: CaMdr1 efflux pump inhibitor potency, dose response, singleplex, Cherry Pick1 hits (AID 588608); type: functional
Benomyl/methotrexate resistance protein, sequence (P28873 whole entry): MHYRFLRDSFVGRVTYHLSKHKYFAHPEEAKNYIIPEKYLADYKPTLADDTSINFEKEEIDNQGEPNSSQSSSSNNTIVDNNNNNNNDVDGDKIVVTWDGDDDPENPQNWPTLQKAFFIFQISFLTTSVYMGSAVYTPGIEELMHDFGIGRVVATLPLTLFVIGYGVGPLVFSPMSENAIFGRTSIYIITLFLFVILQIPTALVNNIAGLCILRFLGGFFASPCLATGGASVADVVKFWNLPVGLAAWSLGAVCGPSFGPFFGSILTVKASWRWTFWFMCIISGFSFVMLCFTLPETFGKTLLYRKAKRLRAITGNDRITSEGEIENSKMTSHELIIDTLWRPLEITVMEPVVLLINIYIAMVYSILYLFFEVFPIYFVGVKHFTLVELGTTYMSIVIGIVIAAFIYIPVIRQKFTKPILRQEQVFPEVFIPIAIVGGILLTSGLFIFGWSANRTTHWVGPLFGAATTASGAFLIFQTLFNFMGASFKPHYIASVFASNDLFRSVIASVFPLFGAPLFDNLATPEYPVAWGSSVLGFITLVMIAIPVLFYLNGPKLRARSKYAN

Potassium voltage-gated channel subfamily KQT member 2, sequence (O88943 whole entry, the tested form may be a part): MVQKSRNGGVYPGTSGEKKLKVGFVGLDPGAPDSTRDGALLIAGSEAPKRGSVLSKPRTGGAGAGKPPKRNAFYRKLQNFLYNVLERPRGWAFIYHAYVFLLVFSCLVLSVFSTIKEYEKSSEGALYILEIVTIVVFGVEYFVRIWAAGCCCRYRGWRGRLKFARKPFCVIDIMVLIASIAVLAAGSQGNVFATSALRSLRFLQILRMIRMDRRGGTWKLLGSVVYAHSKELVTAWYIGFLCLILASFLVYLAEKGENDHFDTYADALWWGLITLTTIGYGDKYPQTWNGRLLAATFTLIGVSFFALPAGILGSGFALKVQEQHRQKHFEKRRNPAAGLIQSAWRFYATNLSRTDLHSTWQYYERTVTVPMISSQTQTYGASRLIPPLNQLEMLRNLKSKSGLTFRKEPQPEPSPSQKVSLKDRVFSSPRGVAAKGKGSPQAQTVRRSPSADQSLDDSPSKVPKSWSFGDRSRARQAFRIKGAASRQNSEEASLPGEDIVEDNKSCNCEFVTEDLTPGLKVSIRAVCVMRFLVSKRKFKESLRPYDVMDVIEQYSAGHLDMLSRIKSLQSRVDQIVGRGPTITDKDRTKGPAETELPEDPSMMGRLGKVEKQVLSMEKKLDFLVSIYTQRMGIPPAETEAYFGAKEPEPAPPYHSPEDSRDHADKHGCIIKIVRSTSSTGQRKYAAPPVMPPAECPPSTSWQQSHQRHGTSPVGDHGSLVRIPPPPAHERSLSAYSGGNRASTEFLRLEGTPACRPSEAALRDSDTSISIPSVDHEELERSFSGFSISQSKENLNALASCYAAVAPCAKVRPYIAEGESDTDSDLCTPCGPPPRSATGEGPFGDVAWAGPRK
T7 sequence (P65502 whole entry): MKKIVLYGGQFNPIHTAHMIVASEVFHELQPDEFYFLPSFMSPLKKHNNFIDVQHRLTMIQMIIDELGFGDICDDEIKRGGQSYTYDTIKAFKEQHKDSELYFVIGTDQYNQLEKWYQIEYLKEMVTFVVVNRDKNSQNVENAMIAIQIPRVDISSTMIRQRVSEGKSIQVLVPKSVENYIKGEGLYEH
Tyrosine-protein phosphatase non-receptor type 11, sequence (Q06124 whole entry): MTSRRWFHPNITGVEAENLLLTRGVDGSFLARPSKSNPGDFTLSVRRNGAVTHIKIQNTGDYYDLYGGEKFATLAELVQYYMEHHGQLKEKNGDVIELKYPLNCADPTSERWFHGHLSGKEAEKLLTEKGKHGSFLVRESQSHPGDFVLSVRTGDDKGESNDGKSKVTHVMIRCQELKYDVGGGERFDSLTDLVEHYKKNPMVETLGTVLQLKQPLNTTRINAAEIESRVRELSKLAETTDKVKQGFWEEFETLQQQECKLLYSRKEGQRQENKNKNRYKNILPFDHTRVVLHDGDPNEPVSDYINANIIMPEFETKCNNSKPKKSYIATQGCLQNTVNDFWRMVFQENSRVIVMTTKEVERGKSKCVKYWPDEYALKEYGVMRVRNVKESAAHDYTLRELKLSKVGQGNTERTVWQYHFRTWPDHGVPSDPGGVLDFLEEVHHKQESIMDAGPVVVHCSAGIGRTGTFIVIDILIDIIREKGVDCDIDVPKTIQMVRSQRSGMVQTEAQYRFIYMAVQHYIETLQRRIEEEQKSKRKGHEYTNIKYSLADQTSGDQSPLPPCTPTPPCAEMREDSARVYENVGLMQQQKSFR
Beta-galactosidase, sequence (Q8VNN2 whole entry): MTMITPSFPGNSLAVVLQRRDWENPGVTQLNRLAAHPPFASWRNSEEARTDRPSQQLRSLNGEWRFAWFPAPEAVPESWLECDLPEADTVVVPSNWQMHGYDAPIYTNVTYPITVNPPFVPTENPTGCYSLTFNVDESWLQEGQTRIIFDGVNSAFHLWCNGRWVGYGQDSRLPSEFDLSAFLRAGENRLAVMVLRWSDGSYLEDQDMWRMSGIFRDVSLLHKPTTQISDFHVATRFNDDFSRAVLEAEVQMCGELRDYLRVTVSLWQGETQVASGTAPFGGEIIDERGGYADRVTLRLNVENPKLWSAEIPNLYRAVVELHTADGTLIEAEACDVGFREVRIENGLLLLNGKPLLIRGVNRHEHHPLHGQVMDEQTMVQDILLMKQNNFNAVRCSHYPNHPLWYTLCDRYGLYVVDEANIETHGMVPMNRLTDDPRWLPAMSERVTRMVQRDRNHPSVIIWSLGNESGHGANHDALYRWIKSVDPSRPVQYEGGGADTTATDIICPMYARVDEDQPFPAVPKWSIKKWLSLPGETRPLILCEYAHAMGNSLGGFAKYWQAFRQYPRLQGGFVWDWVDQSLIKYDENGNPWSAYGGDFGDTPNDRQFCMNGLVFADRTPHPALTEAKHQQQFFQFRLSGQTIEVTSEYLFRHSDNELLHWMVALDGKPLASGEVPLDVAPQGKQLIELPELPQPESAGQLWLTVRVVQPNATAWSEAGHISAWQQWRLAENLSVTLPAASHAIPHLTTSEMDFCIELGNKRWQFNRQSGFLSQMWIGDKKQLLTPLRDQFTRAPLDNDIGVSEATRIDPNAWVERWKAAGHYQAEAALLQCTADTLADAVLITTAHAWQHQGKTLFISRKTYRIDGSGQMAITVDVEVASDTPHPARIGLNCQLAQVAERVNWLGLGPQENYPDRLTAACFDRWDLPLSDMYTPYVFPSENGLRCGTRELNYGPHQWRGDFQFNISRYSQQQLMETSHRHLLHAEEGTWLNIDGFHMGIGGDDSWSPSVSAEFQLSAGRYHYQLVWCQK
G-protein coupled receptor 55, sequence (Q9Y2T6 whole entry): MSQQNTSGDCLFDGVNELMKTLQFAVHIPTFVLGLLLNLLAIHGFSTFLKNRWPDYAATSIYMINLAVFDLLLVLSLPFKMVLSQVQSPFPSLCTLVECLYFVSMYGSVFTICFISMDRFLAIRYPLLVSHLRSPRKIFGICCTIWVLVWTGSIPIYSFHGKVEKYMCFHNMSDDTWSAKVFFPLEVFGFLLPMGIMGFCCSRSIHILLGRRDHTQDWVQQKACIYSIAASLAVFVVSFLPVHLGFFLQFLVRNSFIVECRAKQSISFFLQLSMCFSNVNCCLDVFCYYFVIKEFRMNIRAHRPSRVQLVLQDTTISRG
Dual specificity protein phosphatase 3, sequence (P51452 whole entry): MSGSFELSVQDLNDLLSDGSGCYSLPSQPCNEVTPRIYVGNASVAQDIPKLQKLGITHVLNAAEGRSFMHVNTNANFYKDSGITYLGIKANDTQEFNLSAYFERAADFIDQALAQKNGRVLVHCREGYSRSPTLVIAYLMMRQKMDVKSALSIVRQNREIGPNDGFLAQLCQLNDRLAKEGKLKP
Tyrosine-protein phosphatase non-receptor type 5, sequence (P54829 whole entry): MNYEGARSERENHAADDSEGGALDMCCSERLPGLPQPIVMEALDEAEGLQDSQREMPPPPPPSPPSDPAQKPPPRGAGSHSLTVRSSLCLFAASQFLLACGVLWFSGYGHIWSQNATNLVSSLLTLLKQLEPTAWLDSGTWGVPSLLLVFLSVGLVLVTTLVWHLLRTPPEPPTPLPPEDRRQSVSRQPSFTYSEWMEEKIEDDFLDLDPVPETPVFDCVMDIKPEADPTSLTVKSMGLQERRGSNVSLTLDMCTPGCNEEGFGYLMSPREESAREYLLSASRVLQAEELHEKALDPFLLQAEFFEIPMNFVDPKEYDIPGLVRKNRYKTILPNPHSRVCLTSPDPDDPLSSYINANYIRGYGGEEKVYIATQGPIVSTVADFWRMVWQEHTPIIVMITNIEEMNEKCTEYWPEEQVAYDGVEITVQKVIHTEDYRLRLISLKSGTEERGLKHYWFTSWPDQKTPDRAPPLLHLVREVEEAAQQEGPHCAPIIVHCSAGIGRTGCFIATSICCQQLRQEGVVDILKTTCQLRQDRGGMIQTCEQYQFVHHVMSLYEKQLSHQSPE

Cn1c(CNc2ccc(O)cc2)nc2ccccc21
EC50 [1]: > 99 µM (inactive)
EC50 [2]: > 99 µM (inactive)

CC(=O)O[C@H]1C[C@@H]2OC3C=C(C)CCC3(C)[C@@]1(C)[C@@]21CO1 (stereo partly drawn)
IC50 [3]: 49.8 µM (inactive)

CCOC(=O)N1CCN(C(=O)c2cc3c(s2)-c2ccccc2OC3)CC1
IC50 (Beta-galactosidase): > 80 µM (inactive)

O=C(CSc1nc(-c2ccccc2)nc2ccc(F)cc12)Nc1ccc(C(=O)O)cc1
IC50 [4]: 57.3 µM (inactive)
IC50 [5]: 25.9 µM (inactive)

O=C1/C(=C/c2cccs2)Sc2ccccc21
IC50 (Caspase-3): 3.44 µM (active)
IC50 [6]: 2.11 µM (active)
IC50 [7]: 2.36 µM (active)
IC50 [8]: 2.41 µM (active)

O=C(COc1ccc(/C=N/NC(=O)c2ccncc2)cc1)Nc1ccc([N+](=O)[O-])cc1
IC50 [9]: 6.08 µM (active)
IC50 [10]: > 80 µM (inactive)
IC50 [11]: 21.7 µM (inactive)

Cc1ccc(Cn2c(C3CCCN3c3nc(-c4cc(Cl)c(N)c(Cl)c4)cs3)nc3cc(Cl)c(Cl)cc32)cc1 (stereo not drawn)
IC50 [12]: 11.1 µM (active)
IC50 [13]: 26.4 µM (active)

CCOC(=O)N1CCC(N(CCOC)C(=O)Nc2ccc(Cl)c(Cl)c2)CC1
EC50 [14]: 2.65 µM (active)
IC50 [15]: 0.99 µM (active)

O=C(CCN1C(=O)c2cccnc2C1=O)NC1CCCCCC1
AC50 [16]: 76.9 µM (active)

CC1Oc2ccccc2N(CC(=O)N(Cc2ccccc2)Cc2ccccn2)C1=O (stereo not drawn)
IC50 [15]: 1 µM (active)

COc1cccc(Nc2nc(-c3ccc4c(c3)OCCO4)cs2)c1
IC50 (Caspase-3): 40.2 µM (active)
IC50 [6]: 7.97 µM (active)
IC50 [7]: 20.3 µM (active)
IC50 [8]: 30.3 µM (active)

O=C(CSc1cccc2cccnc12)N/N=C/c1ccncc1
AC50 [16]: 110 µM (active)

COc1c(Cl)cc(Br)c(OC)c1C(=O)NC(=O)Nc1nc(C)cc(C)n1
AC50 (Vero): 29.2 µM (active)

CN(CC(=O)Nc1cccc(F)c1)C(=O)c1ccccc1CCc1ccccc1
AC50 (Vero): 15.3 µM (active)

CC(=O)Nc1cccc(NC(=O)c2cccc(-c3ccc(O)cc3)c2)c1
CC50 [17]: 100 µM (active)
IC50 [18]: 46.4 µM (active)

O=c1/c(=C\c2ccc3c(c2)OCO3)sc2n1CCCN=2
IC50 (Caspase-3): 17 µM (active)
IC50 [6]: 12.6 µM (active)
IC50 [7]: 33.6 µM (active)
IC50 [8]: 34.1 µM (active)

COc1ccc(/N=c2\oc3cc(O)ccc3cc2C(=O)NCC2CCCO2)c(OC)c1 (stereo not drawn)
EC50 [1]: > 99 µM (inactive)
EC50 [2]: > 99 µM (inactive)
EC50 (HEK293 [19]): > 59.6 µM (inactive)
EC50 (HEK293 [20]): > 59.6 µM (inactive)

COCCn1c(=S)[nH]c2sc3c(c2c1=O)CCCC3
EC50 [21]: 0.012 µM (active)
IC50 [18]: 38.7 µM (active)
